Molecular target: T1, Human HPK1, catalytic domain (Homo sapiens, UniProt Q92918)
T1 sequence (Q92918 1-346): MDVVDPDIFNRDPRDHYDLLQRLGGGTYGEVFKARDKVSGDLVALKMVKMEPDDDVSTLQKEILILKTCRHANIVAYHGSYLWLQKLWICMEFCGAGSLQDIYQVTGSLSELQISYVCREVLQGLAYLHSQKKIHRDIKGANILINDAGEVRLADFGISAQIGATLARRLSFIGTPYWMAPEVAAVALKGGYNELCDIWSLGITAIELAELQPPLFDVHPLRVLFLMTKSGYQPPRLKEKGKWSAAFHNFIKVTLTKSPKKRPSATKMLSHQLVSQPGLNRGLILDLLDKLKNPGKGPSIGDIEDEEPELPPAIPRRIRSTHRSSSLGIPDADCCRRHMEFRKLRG
Assay: HPK1-SLP76 TR-FRET Assay
Type: biochemical
Settings: 75 pM HPK1, ATP 10 uM, SLP76 10 nM, 30 min pre-incubation, 60 min reaction

How did the IC50 turn out when COc1cc2c(cc1Nc1ncc3ccc(OCC4CCN(c5cncc(C)n5)CC4)cc3n1)CN(C)CC2 [Compound 4-4, N-(6-methoxy-2-methyl-1,2,3,4-tetrahydroisoquin-olin-7-yl)-7-{[1-(6-methyl-pyrazin-2-yl)piperidin-4-yl]methoxy}quinazolin-2-amine] was run?
The IC50 was 0.158 µM.

Which IC50 does the source give for COc1cc2c(cc1Nc1ncc3ccc(Oc4cn[nH]c4)cc3n1)CN(C)CC2 [Compound 4-5, N-(6-methoxy-2-methyl-1,2,3,4-tetrahydroisoquin-olin-7-yl)-7-[(1H-pyrazol-4-yl)oxy]quinazolin-2-amine] here?
Its IC50 is 0.258 µM.

How did the IC50 turn out when COc1cc2c(cc1Nc1ncc3ccc(Oc4ccc(C(=O)N5CCN(C)CC5)cc4)cc3n1)CN(C)CC2 [Compound 4-6, [4-({2-[(6-methoxy-2-methyl-1,2,3,4-tetrahydro-isoquinolin-7-yl)amino]-quinazolin-7-yl}oxy)phen-yl](4-methylpiperazin-1-yl)methanone] was run?
Its IC50 is 0.583 µM.

Which IC50 does the source give for COc1cc2c(cc1Nc1ncc3ccc(Oc4ccc(N5CCN(C(C)=O)CC5)cc4)cc3n1)CN(C)CC2 [Compound 4-7, 1-{4-[4-({2-[(6-methoxy-2-methyl-1,2,3,4-tetrahydro-isoquinolin-7-yl)amino]-quinazolin-7-yl}oxy)phen-yl]piperazin-1-yl}ethan-1-one] here?
Its IC50 is 0.224 µM.

COc1cc2c(cc1Nc1ncc3ccc(Oc4ccc([C@H](C)N)cc4)cc3n1)CN(C)CC2 [Compound 4-8, 7-{4-[(1S)-1-aminoethyl]-phenoxy}-N-(6-methoxy-2-methyl-1,2,3,4-tetrahydro-isoquinolin-7-yl)quinazolin-2-amine] was tested. Which IC50 did it give?
Its IC50 is 0.00237 µM.

With COc1cc2c(cc1Nc1ncc3c(N)cc(Oc4ccc5c(c4)CCNC5)cc3n1)CN(C)CC2 [Compound 4-9, N2-(6-Methoxy-2-methyl-1,2,3,4-tetrahydroisoquinolin-7-yl)-7-((1,2,3,4-tetrahydroisoquinolin-6-yl)oxy)quinazoline-2,5-diamine] as the compound, how does the IC50 read?
Its IC50 is 0.00219 µM.

For COc1cc2c(cc1Nc1ncc3ccc([C@H]4CC[C@H](N)CC4)cc3n1)CN(C)CC2 [Compound 5-1, 7-((1r,4r)-4-aminocyclohexyl)-N-(6-methoxy-2-methyl-1,2,3,4-tetrahydroisoquinolin-7-yl)quinazolin-2-amine], which IC50 is on record?
Its IC50 is 0.662 µM.

With COc1cc2c(cc1Nc1ncc3ccc([C@H]4CC[C@H](CN)CC4)cc3n1)CN(C)CC2 [Compound 5-2, 7-((1r,4r)-4-(aminomethyl)-cyclohexyl)-N-(6-methoxy-2-methyl-1,2,3,4-tetrahydroiso-quinolin-7-yl)quinazolin-2-amine] as the compound, how does the IC50 read?
Its IC50 is 0.165 µM.
